Experimental data from ChEMBL document CHEMBL1201862, “PubChem BioAssay data set” (2004).
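Five concentrations, 48 hours, 96-well plates. GI50 = concentration required for 50% inhibition of growth.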 Active and inactive are the calls of the source. Rule as the data show it: active = GI50 up to about 1.1 µM and inactive = higher.

Columns and labels:
Assay in all cases: NCI-60 cell line screen, 48 h
786-0 = test system: 786-0
ACHN = test system: ACHN
CAKI-1 = test system: CAKI-1
CCRF-CEM = test system: CCRF-CEM
COLO 205 = test system: COLO 205
HOP-92 = test system: HOP-92
IGROV-1 = test system: IGROV-1
MOLT-4 = test system: MOLT-4
NCI-H226 = test system: NCI-H226
RPMI-8226 = test system: RPMI-8226
SK-MEL-28 = test system: SK-MEL-28
SK-MEL-2 = test system: SK-MEL-2
SK-OV-3 = test system: SK-OV-3
SN12C = test system: SN12C
SR = test system: SR
TK-10 = test system: TK-10
U-251 = test system: U-251

Measured: GI50

Cc1nc2c(nc1C)C(=O)c1cc(O)ccc1C2=O
inactive: 786-0 > 95.5 µM | ACHN > 100 µM | CAKI-1 > 100 µM | CCRF-CEM 48.9 µM | COLO 205 23.1 µM | HOP-92 > 100 µM | IGROV-1 68.9 µM | MOLT-4 > 66.7 µM | NCI-H226 > 100 µM | RPMI-8226 > 51.1 µM | SK-MEL-28 98.4 µM | SK-MEL-2 55.6 µM | SK-OV-3 > 100 µM | SN12C > 73.5 µM | SR 51.1 µM | TK-10 > 100 µM | U-251 > 100 µM

C[Si](C)(C)/N=C1\N2C(=NC1(C(F)(F)F)C(F)(F)F)Sc1ccccc12
inactive: 786-0 > 50 µM | ACHN > 50 µM | CAKI-1 > 50 µM | CCRF-CEM > 50 µM | COLO 205 > 50 µM | HOP-92 29.9 µM | IGROV-1 > 50 µM | MOLT-4 > 50 µM | NCI-H226 > 50 µM | RPMI-8226 > 50 µM | SK-MEL-2 > 50 µM | SK-OV-3 > 50 µM | SN12C > 50 µM | SR > 50 µM | TK-10 > 50 µM | U-251 > 50 µM

COC(=O)C1(C(=O)OC)CC(=O)c2cc3c(cc2-c2c(cc(OC)c(OC)c2OC)C1)OCO3
inactive: 786-0 > 211 µM | ACHN > 211 µM | CAKI-1 > 211 µM | CCRF-CEM 173 µM | COLO 205 183 µM | HOP-92 26.8 µM | IGROV-1 > 211 µM | MOLT-4 83.6 µM | NCI-H226 95.5 µM | SK-MEL-28 > 211 µM | SK-MEL-2 > 211 µM | SK-OV-3 > 211 µM | SN12C > 211 µM | SR 70.3 µM | TK-10 > 211 µM | U-251 > 211 µM

CN(C)c1nc(N(C)C)n2nc(-c3ccccc3[N+](=O)[O-])nc2n1
inactive: 786-0 49.9 µM | ACHN > 100 µM | CAKI-1 > 100 µM | CCRF-CEM > 100 µM | COLO 205 70.1 µM | HOP-92 > 100 µM | IGROV-1 > 100 µM | MOLT-4 > 100 µM | NCI-H226 > 100 µM | RPMI-8226 89.7 µM | SK-MEL-28 > 100 µM | SK-MEL-2 > 100 µM | SK-OV-3 > 100 µM | SN12C > 100 µM | SR > 100 µM | TK-10 > 100 µM | U-251 > 100 µM

CC1CC(=O)c2c(ccc3c2C(=O)c2cccc(O)c2C3=O)C1 (stereo unspecified)
inactive: 786-0 7 µM | CCRF-CEM 1.95 µM | COLO 205 5.75 µM | HOP-92 1.79 µM | IGROV-1 > 10 µM | MOLT-4 2.13 µM | NCI-H226 14.4 µM | RPMI-8226 3.34 µM | SK-MEL-28 13.1 µM | SK-MEL-2 8.81 µM | SK-OV-3 19.3 µM | SR 3.54 µM | TK-10 > 10 µM | U-251 11.4 µM

C[Si](C)(C)/C=C/CCC(C=O)(CCCl)c1ccccc1 (stereo unspecified)
inactive: 786-0 16.3 µM | ACHN 22.8 µM | CCRF-CEM 29.6 µM | COLO 205 29.2 µM | HOP-92 28.1 µM | IGROV-1 41.1 µM | MOLT-4 16.3 µM | SK-MEL-28 32.9 µM | SK-MEL-2 14.8 µM | SK-OV-3 56.9 µM | SN12C 31.4 µM | SR > 10 µM | TK-10 56.1 µM | U-251 15.7 µM

O=C1C(Cl)C(c2cccc(O)c2)N1n1cnc2ccccc2c1=O (stereo unspecified)
inactive: 786-0 > 100 µM | ACHN > 100 µM | CAKI-1 76 µM | COLO 205 > 100 µM | IGROV-1 60.5 µM | MOLT-4 57.5 µM | NCI-H226 21.6 µM | RPMI-8226 40.7 µM | SK-MEL-28 > 100 µM | SK-MEL-2 > 100 µM | SK-OV-3 > 100 µM | SN12C > 100 µM | SR 26 µM | TK-10 > 100 µM | U-251 > 100 µM

O=C(Nc1ccc(F)cc1)C(=O)C(C1OC(=O)c2ccccc21)[N+](=O)[O-] (stereo unspecified)
inactive: 786-0 > 100 µM | ACHN > 100 µM | CAKI-1 > 100 µM | CCRF-CEM > 100 µM | COLO 205 > 100 µM | HOP-92 > 100 µM | IGROV-1 > 100 µM | MOLT-4 > 100 µM | NCI-H226 > 100 µM | RPMI-8226 > 100 µM | SK-MEL-28 > 100 µM | SK-MEL-2 > 100 µM | SK-OV-3 > 100 µM | SR > 100 µM | TK-10 > 100 µM | U-251 > 100 µM

COC1=CC(=O)[C@]2(C)[C@H](C1=O)C(C)[C@H]2c1ccc(OC)cc1 (stereo partly specified)
inactive: 786-0 > 100 µM | ACHN > 100 µM | CAKI-1 > 100 µM | CCRF-CEM > 100 µM | COLO 205 > 100 µM | HOP-92 > 100 µM | IGROV-1 > 100 µM | MOLT-4 > 100 µM | NCI-H226 > 100 µM | RPMI-8226 > 100 µM | SK-MEL-28 > 100 µM | SK-MEL-2 > 100 µM | SK-OV-3 > 100 µM | SR > 100 µM | TK-10 > 100 µM | U-251 > 100 µM
